Source: article PMC13011345, “Computational and experimental identification of potential neutralizing peptides derived from human ACE2 against SARS-CoV-2 infection” (Journal of Virology, 2026)
Ends that are not written are not given here.

System: pseudotyped SARS-CoV-2 particle (VSV-SARS-CoV-2-S virus, Wuhan-Hu-1 spike) infecting BHK21-hACE2 cells
Details: 1 h

Row | Sequence | IC50 [µM]
1 | AWDLGKGDFRIL [ACE348–359] | 0.0312
2 | HIQYDMAYAAQPFLLRNG [ACE378–395] | 0.0038
3 | QKLFNMLRLGKS [ACE552–563] | 0.0125
4 | LPNMTQGFWENSML [ACE320–333] | 0.0439
